Source: a melting point compilation (Tetko et al.; mined from patent text by program, amines drawn as free bases though some values may be those of a salt)

| SMILES | melting point |
| --- | --- |
| COc1ccc(NC(=O)c2ccc(-c3ccc(-c4noc(C)n4)cc3C)cc2)cc1OCCN | 150 to 153 °C |
| CC(=O)O[C@@H](C)C(=O)Nc1c(C(=O)c2ccccc2)[nH]c2cc(Cl)ccc12 | 80 to 85 °C |
| CCOC(=O)c1cn(-c2ccc(OC)cc2)cn1 | 93 to 94 °C |
| COc1ccc2[nH]c(=O)cc(CCCl)c2c1 | 231 to 232 °C |
| CC(C)N(CCOc1ccc(CC2SC(=O)NC2=O)cc1)c1nc2ccccc2o1 (stereo not drawn) | 66 °C |
| COc1ccc(N=C2C=CC(=O)C=C2)c(CO)c1 | 87 to 89 °C |
| CN1CCN(c2ccc3cc(Cl)ccc3n2)CC1 | 141 to 142 °C |
| NC1CCC(C(=O)Nc2cccc(-c3cccc4c3/C(=C/c3ccc[nH]3)C(=O)N4)c2)CC1 (stereo not drawn) | 210 to 212 °C |
| CC12C=CC(=O)C=C1CCC1C3=CC(O)C(O)(C(=O)CO)C3(C)CC(O)C12 (stereo not drawn) | 240 to 242 °C |
| COc1cc(N(C)C(C)C)ccc1CN1C(=O)C(C)(c2ccccc2Cl)c2cc(Cl)ccc21 (stereo not drawn) | 156 °C |
| CC1SC(=O)NN=C1c1ccc2c(c1)C(=NNc1ccc(Cl)cc1)C(=O)N2 (stereo not drawn) | 283 °C |
| COc1cc(N(C)C)ccc1C(=O)NC1CCN(C(C)CC(C(=O)N(C)C)(c2ccccc2)c2ccccc2)CC1O (stereo not drawn) | 211 °C |
| CCOc1nccnn1 | 95 to 99 °C |
| CSc1ccc(C(=O)c2ccc(F)cc2)[nH]1 | 112 to 113 °C |
| Fc1cc(F)c2nc(CCC#Cc3ccccn3)cn2c1 | 130 to 131 °C |
| Oc1ccc2nc(-c3ccc(O)c(F)c3)oc2c1 | 269 to 271 °C |
| CC(C)(C)OC(=O)NCCc1cccc(OCCC2Oc3ccccc3N(Cc3ccc(Cl)cc3)C2=O)c1 (stereo not drawn) | 97 to 98.5 °C |

| SMILES | melting point |
| --- | --- |
| CN(C)C(=O)c1ccccc1Sc1ccc([N+](=O)[O-])cc1[N+](=O)[O-] | 144 to 145 °C |
| Cc1c(Oc2nccs2)ccc(C(=O)O)c1Cl | 150 to 152 °C |
| C[C@H](Cc1ccc(-c2cc(F)c(C#N)c(F)c2)cc1)c1ccccc1 | 60.7 to 62.2 °C |
| Cc1ncc(CN2CC=C(CCc3ccccc3)CC2)c(N)n1 | 152 to 154 °C |
| CC1(C(=O)C(=Cc2ccc(Cl)cc2Cl)n2cncn2)COCOC1 | 133 to 135 °C |
| COC12CC(C)(c3nc(-c4cncc(Br)c4)no3)CN(C)C1Cc1cn(C)c3cccc2c13 (stereo not drawn) | 185 to 189 °C |
| COc1ccc(C=Cc2ccccc2)c(-c2ccc(-c3cc(OC)ccc3C=Cc3ccccc3)n2-c2ccc(C)cc2)c1 | 303 to 305 °C |
| COCC12CCC(O)CC1CCC1C3CCC(=O)C3(C)CCC12 (stereo not drawn) | 172 to 174 °C |
| CCN(CC)Cc1nc2cc(OC)c(OC)cc2c(-c2ccc(OC)c(OC)c2)c1C(C)=O | 146 to 148 °C |
| O=C(O)c1ccc2nc(/C=C/c3ccccc3)cc(=O)n2c1 | 293 to 295 °C |
| O=C1CC(Cc2ccc(Cl)cc2)CN1 (stereo not drawn) | 95 to 98 °C |
| CCC(C)(C)c1ccc(OC(C)=O)c(C2(OC(C)=O)C(=O)c3ccccc3C2=O)c1 | 146 to 151 °C |
| CC(C)(C)Oc1ccc(C(=O)N[C@H]2CC[C@H](CCN3CCN(c4nccc5c4CCO5)CC3)CC2)cc1 | 200 °C |
| CN1C=C(c2ccccc2)c2cccc(NC(=O)C=NO)c2C1 | 151 °C |
| CC(=O)CN1CCNC1=Nc1cc2c(cc1Br)OCCO2 | 98 to 100 °C |
| CCOC(=O)Cc1c(C(=O)c2ccc(Cl)cc2)[nH]c2cc(Cl)ccc12 | 186 to 188 °C |

Other lines, results leading:

| melting point | SMILES |
| --- | --- |
| 126 to 127 °C | O=C1c2ccccc2C(=O)N1C[C@H]1COc2cc(Cl)ccc2O1 |
| 204 to 206 °C | CC(=N)NC(=O)Nc1ccccc1 |
| 249 to 251 °C | O=C(O)c1csc2c(=O)cc(C(F)(F)F)oc12 |
| 74 to 75 °C | Cc1nc(N)ccc1Cl |
| 90 to 92 °C | NC1=CC=C(c2ccccc2)CC1(Cl)C(O)(C1CC1)C1CC1 (stereo not drawn) |
| 95 to 95.8 °C | CCCCCS(=O)(=O)NC(=O)CCc1ccc(OCCCOCCOC)cc1Oc1ncc(C(F)(F)F)cc1Cl |
| 233 °C | O=C1C(Cl)=C(Nc2ccc(O)cc2)C(=O)c2ccccc21 |
| 80 °C | CC1CCCN1CCCOc1ccc(C2CCC(O)CC2)cc1 (stereo not drawn) |
| 116 to 117 °C | COc1ccc(C2CCN(C(=O)C(N)=O)CC2)cc1C=C1CCCC1 |
| 158 to 160 °C | CN(C)C(=O)C(O)(C(=O)O)c1ccc(Cl)c(Cl)c1 (stereo not drawn) |
| 156 to 158 °C | CCOC(=O)Cc1ccc(CC(=O)c2c(O)c3cccnc3n(-c3ccccc3)c2=O)cc1 |
| 103 to 106 °C | CC(=O)N1CCc2ccc(C(=O)CCCCl)cc2CC1 |
| 205 to 210 °C | CCN1C(=O)C(C(=O)Nc2cccc(C(=O)Nc3ccc(I)cc3)c2)c2cc(C(C)=O)ccc21 (stereo not drawn) |
| 187 to 188 °C | COc1c(OC)c(OC)c2c(=O)cc(-c3ccc(O)cc3)oc2c1OC |
| 67 to 69 °C | CC1=C(C(=O)CS(=O)(=O)NC(C)C)C(c2cccc([N+](=O)[O-])c2)C(C(=O)OC(C)C)=C(C)N1C (stereo not drawn) |
| 195 to 197 °C | Cc1cc(I)c(C(N)=O)cc1C |
| 124 °C | Cc1cc(N)c([N+](=O)[O-])c(C)c1N |
| 141 to 142 °C | CN1C(CCCCCBr)Nc2cc(Cl)c(S(=O)(=O)NCc3ccccc3)cc2S1(=O)=O (stereo not drawn) |
| 169 to 171 °C | C#CCOc1ccc2c(C)nnc(Cl)c2c1 |
| 89 to 90 °C | Cc1nn2ccccc2c1C(=O)c1cccnc1 |

| melting point | SMILES |
| --- | --- |
| 116 to 118 °C | CCOC(=O)n1c(=O)n(CCCl)c2cc(OC)ccc21 |
| 181 to 183 °C | Cc1cc2c(c(C(O)=S)c1)OCCO2 |
| 147 to 158 °C | Cc1cc(C)c(COc2cccc3c2C(=O)c2c(Cl)ccc4c2c-3nn4CCNCCO)c(C)c1 |
| 246 to 248 °C | O=C1CO[C@@H]2c3ccccc3OCC[C@H]2N1 (relative stereo) |
| 194 to 196 °C | CC(=O)OCCOc1ccc2oc3cc(C#N)ccc3c(=O)c2c1 |
| 158 °C | CCOC(=O)c1cccn1CCN1CCC(=C2c3ccccc3CCn3ccnc32)CC1 |
| 135 °C | CCCc1cc(CC(=O)O)ccc1OCc1ccc2ccccc2n1 |
| 233 to 235 °C | Cc1nc(N(C)C)ccc1N1CCCn2c1nc1c(Cl)ccc(C(OC(F)F)C(F)(F)F)c12 (stereo not drawn) |
| 86 to 88 °C | C=C(C(=O)c1cc(-c2cccs2)ccc1OC)c1ccc(C#N)cc1 |
| 32 °C | CC(C)OCCCNC(=O)C(C)(C(C)C)C(C)C |
| 134 °C | N#CCOc1cccc2c1c1cccc(F)c1n2Cc1ccccc1 |
| 209 to 210 °C | Cc1ccc2c(c1)c1c(CC(=O)N(C)C)nn(-c3ccccc3)c(=O)c1n2C |
| 152 °C | CCOC(=O)C1CCN(Cc2nc(NCc3ccc(OC)c(Cl)c3)c3c4c(oc3n2)CCCC4)CC1 |
| 107 to 108 °C | CC(C)(C)C(=O)C=C(C(=O)C(C)(C)C)n1cncn1 |
| 245 to 248 °C | CC(c1oc2ccc(F)cc2c(=O)c1-c1ccccc1F)n1cnc2c(N)ncnc21 (stereo not drawn) |
| 143 to 145 °C | CS(=O)(=O)c1ccc(-c2ccc(C=C(Cl)Cl)s2)cc1 |
| 133 to 134 °C | CSCC[C@@H](NC(=O)OC(C)(C)C)C(=O)Oc1c(Cl)c(Cl)c(Cl)c(Cl)c1Cl |
| 82 to 84 °C | CC(=O)C=Cc1ccc(Br)cc1 |
| 94 to 95 °C | CCOC(=O)[C@@H](CC(=O)c1ccc2ccccc2c1)NC(C)=O |
| 91 to 93 °C | OC1CCN(c2ccc(Br)cn2)CC1 |
